In PubChem BioAssay (NCI) one finds TGI data, which are given here for 18 compounds.

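A five-concentration, 48-hour dose response in 96-well plates underlies each endpoint, interpolated linearly between surrounding concentrations. TGI: total growth inhibition.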 Bounds are passed on as bounds.

In one experiment the test system is KM12 colon. Briefly: inhibition of tumour cell growth, NCI panel, 48 h.
On to `Cc1nc2ccc([N+](=O)[O-])cc2c(=O)n1C(=S)Nc1cccc(Cl)c1`, for which the TGI amounted to 32.2 µM.
The same measure, in the same setting: under `CCOC(=O)c1c(N)n(-c2ccccc2)c(=S)n(-c2ccccc2)c1=O` stands > 100 µM.

The test system of another experiment is MALME-3M melanoma. As to the kind of experiment: inhibition of tumour cell growth, NCI panel, 48 h.
Regarding `Cc1nc2cc(C(F)(F)F)ccc2[nH]c1=O`, the TGI is > 100 µM.
On the same count and under the same terms, for `CC1=CC=CC(C)(C)CC1(O[Si](C)(C)C)C(F)(F)F` (stereo not drawn) the value was > 100 µM.
On to `CN(C)c1ccc(/C(Br)=C2\OC(=O)c3ccccc32)cc1`, for which the TGI is > 100 µM.
Regarding `CN1C(=O)CN(NC(=O)C2=C(O)c3ccc(Br)cc3S(=O)(=O)N2)C1=S`, the TGI is > 100 µM.
On to `O=C1CC(c2ccc([N+](=O)[O-])cc2)C2(C(=O)NC(=S)NC2=O)C(c2ccc([N+](=O)[O-])cc2)C1` (stereo not drawn), for which the TGI worked out at 32.2 µM.
`O=C1OC[C@@H]2Cc3c([nH]c4ccccc34)[C@@H](c3ccc(O)cc3)N12` had a TGI of 85.1 µM.
With `Nc1ncnc2c1ncn2C(=O)NC12CC3CC(CC(C3)C1)C2`, the TGI is > 100 µM.
In the case of `CC1=C2c3ccccc3N(C(=O)/C=C/C(=O)O)[C@H]2[C@H]2C(=O)OC(=O)[C@H]2C1`, the TGI was > 10 µM.
On the same count and under the same terms, for `CN1CCN(C(=S)N(C)C(=O)c2ccc(Cl)cc2)CC1` the value was > 100 µM.
On the same count and under the same terms, under `CCOP(=O)(OCC)/C(F)=C/c1ccccc1` stands > 100 µM; under `CC(C)(CO)N1C(=O)c2ccccc2C1(O)c1ccc(Cl)cc1` (stereo not drawn), > 100 µM; under `Cc1cccc(N(CCC#N)S(=O)(=O)c2ccccc2)c1`, > 100 µM.
Take `c1ccc2c(c1)CCCN1CCc3ccccc3C21` (stereo not drawn): the TGI was > 100 µM.
Turning to `CN1CN(c2ccccc2)C2(CCN(CCCC3(c4cccs4)OCCO3)CC2)C1=O`, the TGI was > 100 µM.
In turn, `Cc1cc(O)cc(O)c1N=Nc1ccc([N+](=O)[O-])cc1` displayed a TGI of 87.7 µM.
Compound `CCOC(=O)c1c(SCCN2CCCC2)n(-c2ccccc2)c(=S)n(-c2ccccc2)c1=O` had a TGI of 3.36 µM.
As to `Cc1nc2ccc([N+](=O)[O-])cc2c(=O)n1C(=S)Nc1cccc(Cl)c1`, the TGI amounted to 49.1 µM.
Still for that read-out and setting: for `CCOC(=O)c1c(N)n(-c2ccccc2)c(=S)n(-c2ccccc2)c1=O` the value was > 100 µM.

The test system of another experiment is M14 melanoma. As to the kind of experiment: inhibition of tumour cell growth, NCI panel, 48 h.
Consider `Cc1nc2cc(C(F)(F)F)ccc2[nH]c1=O`, for which the TGI is > 100 µM.
For the compound `CC1=CC=CC(C)(C)CC1(O[Si](C)(C)C)C(F)(F)F` (stereo not drawn), the TGI is > 100 µM.
Still for that read-out and setting: under `CN(C)c1ccc(/C(Br)=C2\OC(=O)c3ccccc32)cc1` stands > 100 µM; under `CN1C(=O)CN(NC(=O)C2=C(O)c3ccc(Br)cc3S(=O)(=O)N2)C1=S`, > 100 µM.
On the same count and under the same terms, for `O=C1CC(c2ccc([N+](=O)[O-])cc2)C2(C(=O)NC(=S)NC2=O)C(c2ccc([N+](=O)[O-])cc2)C1` (stereo not drawn) the value was 45.7 µM; for `O=C1OC[C@@H]2Cc3c([nH]c4ccccc34)[C@@H](c3ccc(O)cc3)N12`, 54.7 µM; for `Nc1ncnc2c1ncn2C(=O)NC12CC3CC(CC(C3)C1)C2`, > 100 µM.
On the same count and under the same terms, for `CC1=C2c3ccccc3N(C(=O)/C=C/C(=O)O)[C@H]2[C@H]2C(=O)OC(=O)[C@H]2C1` the value was > 10 µM; for `CN1CCN(C(=S)N(C)C(=O)c2ccc(Cl)cc2)CC1`, > 100 µM.
In the case of `CCOP(=O)(OCC)/C(F)=C/c1ccccc1`, the TGI was > 100 µM.
`CC(C)(CO)N1C(=O)c2ccccc2C1(O)c1ccc(Cl)cc1` (stereo not drawn): the TGI was > 100 µM.
For `Cc1cccc(N(CCC#N)S(=O)(=O)c2ccccc2)c1`, the TGI was > 100 µM.
Still for that read-out and setting: for `c1ccc2c(c1)CCCN1CCc3ccccc3C21` (stereo not drawn) the value was > 100 µM.
Same read-out and setting: under `CN1CN(c2ccccc2)C2(CCN(CCCC3(c4cccs4)OCCO3)CC2)C1=O` stands > 100 µM; under `Cc1cc(O)cc(O)c1N=Nc1ccc([N+](=O)[O-])cc1`, > 100 µM.
Same read-out and setting: for `CCOC(=O)c1c(SCCN2CCCC2)n(-c2ccccc2)c(=S)n(-c2ccccc2)c1=O` the value was 3.25 µM; for `Cc1nc2ccc([N+](=O)[O-])cc2c(=O)n1C(=S)Nc1cccc(Cl)c1`, 53.6 µM; for `CCOC(=O)c1c(N)n(-c2ccccc2)c(=S)n(-c2ccccc2)c1=O`, > 100 µM.

For the next experiment, the system named is DU-145 prostate. Briefly: inhibition of tumour cell growth, NCI panel, 48 h.
On to `Cc1nc2cc(C(F)(F)F)ccc2[nH]c1=O`, for which the TGI is > 100 µM.
In the case of `CC1=CC=CC(C)(C)CC1(O[Si](C)(C)C)C(F)(F)F` (stereo not drawn), the TGI was > 100 µM.
Turning to `CN(C)c1ccc(/C(Br)=C2\OC(=O)c3ccccc32)cc1`, the TGI was > 100 µM.
Regarding `CN1C(=O)CN(NC(=O)C2=C(O)c3ccc(Br)cc3S(=O)(=O)N2)C1=S`, the TGI was > 100 µM.
Turning to `O=C1CC(c2ccc([N+](=O)[O-])cc2)C2(C(=O)NC(=S)NC2=O)C(c2ccc([N+](=O)[O-])cc2)C1` (stereo not drawn), the TGI came to 83.3 µM.
For `O=C1OC[C@@H]2Cc3c([nH]c4ccccc34)[C@@H](c3ccc(O)cc3)N12`, the TGI was > 100 µM.
Regarding `Nc1ncnc2c1ncn2C(=O)NC12CC3CC(CC(C3)C1)C2`, the TGI is > 100 µM.
With `CC1=C2c3ccccc3N(C(=O)/C=C/C(=O)O)[C@H]2[C@H]2C(=O)OC(=O)[C@H]2C1`, the TGI was > 10 µM.
As to `CN1CCN(C(=S)N(C)C(=O)c2ccc(Cl)cc2)CC1`, the TGI was > 100 µM.
The same measure, in the same setting: under `CCOP(=O)(OCC)/C(F)=C/c1ccccc1` stands > 100 µM; under `CC(C)(CO)N1C(=O)c2ccccc2C1(O)c1ccc(Cl)cc1` (stereo not drawn), > 100 µM; under `Cc1cccc(N(CCC#N)S(=O)(=O)c2ccccc2)c1`, > 100 µM.
The same measure, in the same setting: for `c1ccc2c(c1)CCCN1CCc3ccccc3C21` (stereo not drawn) the value was > 100 µM; for `CN1CN(c2ccccc2)C2(CCN(CCCC3(c4cccs4)OCCO3)CC2)C1=O`, > 100 µM; for `Cc1cc(O)cc(O)c1N=Nc1ccc([N+](=O)[O-])cc1`, 79.1 µM.
